Source: the supplement of paper PMC10307832

Experiments:
Assay in all cases: relative viability (nuclei count vs DMSO), 5 days (fraction); higher = more cells survive
Bosutinib = compound: COc1cc(Nc2c(C#N)cnc3cc(OCCCN4CCN(C)CC4)c(OC)cc23)c(Cl)cc1Cl [Bosutinib]
In short: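 Viability was read as treated-well nuclei divided by vehicle-well nuclei, using the median across plates. Lung cancer cell lines in 1536-well plates were kept overnight at 37 °C, pinned with five √10-spaced library-drug doses, and after 5 days were Hoechst-stained, imaged at 4× and counted in MetaXpress. Plates passed only with control CV below 25% and at least one doubling.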

Bosutinib + Lapatinib = compound: COc1cc(Nc2c(C#N)cnc3cc(OCCCN4CCN(C)CC4)c(OC)cc23)c(Cl)cc1Cl [Bosutinib] + CS(=O)(=O)CCNCc1ccc(-c2ccc3ncnc(Nc4ccc(OCc5cccc(F)c5)c(Cl)c4)c3c2)o1 [Lapatinib] (partner 2 µM)
In short: (§1)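 The day after seeding in 1536-well plates, lung cancer cell lines were treated by pin tool with a single drug, or with a fixed anchor-drug dose together with five library-drug doses (not always all listed) in √10 steps. After 5 days, a combined fix-and-stain solution (final 0.05% Triton X-100, 1% formaldehyde, 1 ug/ml Hoechst) was added. Nuclei counted on 4× images gave relative viability as treated counts over vehicle counts, reported as the median of duplicate plates.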

Bosutinib + AZD7762 = compound: COc1cc(Nc2c(C#N)cnc3cc(OCCCN4CCN(C)CC4)c(OC)cc23)c(Cl)cc1Cl [Bosutinib] + NC(=O)Nc1cc(-c2cccc(F)c2)sc1C(=O)N[C@H]1CCCNC1 [AZD7762] (partner 0.2 µM)
In short: as §1

Bosutinib + Vorinostat = compound: COc1cc(Nc2c(C#N)cnc3cc(OCCCN4CCN(C)CC4)c(OC)cc23)c(Cl)cc1Cl [Bosutinib] + O=C(CCCCCCC(=O)Nc1ccccc1)NO [Vorinostat] (partner 1 µM)
In short: as §1

Bosutinib + Trametinib = compound: COc1cc(Nc2c(C#N)cnc3cc(OCCCN4CCN(C)CC4)c(OC)cc23)c(Cl)cc1Cl [Bosutinib] + CC(=O)Nc1cccc(-n2c(=O)n(C3CC3)c(=O)c3c(Nc4ccc(I)cc4F)n(C)c(=O)c(C)c32)c1 [Trametinib] (partner 0.02 µM)
In short: as §1

Row | Cell Line | relative viability (Bosutinib; 0.01 µM) | relative viability (Bosutinib; 0.03162 µM) | relative viability (Bosutinib; 0.1 µM) | relative viability (Bosutinib; 1 µM) | relative viability (Bosutinib + Lapatinib; first compound 0.01 µM) | relative viability (Bosutinib + Lapatinib; first compound 0.03162 µM) | relative viability (Bosutinib + Lapatinib; first compound 0.1 µM) | relative viability (Bosutinib + Lapatinib; first compound 1 µM) | relative viability (Bosutinib + AZD7762; first compound 0.03162 µM) | relative viability (Bosutinib + AZD7762; first compound 0.1 µM) | relative viability (Bosutinib + AZD7762; first compound 1 µM) | relative viability (Bosutinib + Vorinostat; first compound 0.01 µM) | relative viability (Bosutinib + Vorinostat; first compound 0.03162 µM) | relative viability (Bosutinib + Vorinostat; first compound 0.1 µM) | relative viability (Bosutinib + Vorinostat; first compound 1 µM) | relative viability (Bosutinib + AZD7762; first compound 0.01 µM) | relative viability (Bosutinib + Trametinib; first compound 0.01 µM) | relative viability (Bosutinib + Trametinib; first compound 0.03162 µM) | relative viability (Bosutinib + Trametinib; first compound 0.1 µM) | relative viability (Bosutinib + Trametinib; first compound 1 µM)
1 | ABC-1 | 0.976 | 0.99 | 0.854 | 0.88 | 1.26 | 1.2 | 1.05 | 0.786 | 0.873 | 0.915 | 0.677 | 1.18 | 1.08 | 1.32 | 1.14 |  |  |  |  | 
2 | NCI-H1703 | 0.869 | 0.972 | 0.835 | 0.468 | 1.04 | 1.1 | 0.825 | 0.653 | 0.132 | 0.124 | 0.133 |  |  |  |  | 0.12 |  |  |  | 
3 | COR-L 105 | 0.974 | 0.861 | 0.914 | 0.735 | 0.384 | 0.403 | 0.391 | 0.3 |  |  |  | 0.861 | 0.844 | 0.828 | 0.624 |  | 0.51 | 0.381 | 0.42 | 0.389
4 | NCI-H661 | 0.97 | 1.09 | 1.06 | 0.731 | 0.489 | 0.511 | 0.468 | 0.354 |  |  |  | 0.784 | 0.912 | 0.866 | 0.829 |  | 0.616 | 0.554 | 0.565 | 0.439
5 | NCI-H1650 | 1.01 | 0.846 | 0.778 | 0.783 | 0.835 | 0.731 | 0.745 | 0.636 |  |  |  | 0.717 | 0.623 | 0.529 | 0.41 |  | 0.532 | 0.584 | 0.6 | 0.312
6 | SW 1573 | 1.05 | 1.02 | 0.941 | 0.924 | 1.32 | 1.08 | 1.14 | 0.935 |  |  |  | 0.89 | 0.843 | 0.593 | 0.788 |  | 0.571 | 0.614 | 0.652 | 0.504
7 | UMC-11 | 1 | 1.01 | 0.956 | 0.912 | 1.1 | 1.03 | 1.03 | 0.821 |  |  |  | 0.354 | 0.383 | 0.43 | 0.364 |  | 0.724 | 0.723 | 0.686 | 0.678
8 | LCLC-103H | 1.01 | 0.999 | 0.991 | 0.996 |  |  |  |  | 0.74 | 0.827 | 0.771 | 0.799 | 0.858 | 0.889 | 0.841 | 0.854 | 0.747 | 0.685 | 0.672 | 0.656
9 | NCI-H2342 | 0.961 | 0.99 | 0.926 | 1.21 |  |  |  |  | 0.553 | 0.459 | 0.55 | 0.779 | 0.787 | 0.859 | 0.828 | 0.445 | 0.706 | 0.703 | 0.856 | 1.1
10 | NCI-H520 | 1.02 | 1.11 | 0.953 | 0.775 | 1.01 | 0.86 | 0.855 | 0.639 |  |  |  | 0.729 | 0.735 | 0.724 | 0.708 |  | 0.703 | 0.633 | 0.6 | 0.417
11 | SW 900 | 0.856 | 0.706 | 0.801 | 0.815 |  |  |  |  | 0.589 | 0.581 | 0.482 | 0.605 | 0.531 | 0.671 | 0.409 | 0.624 | 0.809 | 0.674 | 0.784 | 0.61
12 | NCI-H522 | 0.935 | 1.03 | 1.05 | 0.895 |  |  |  |  | 0.714 | 0.698 | 0.897 | 0.873 | 0.88 | 0.892 | 0.783 | 0.794 | 0.723 | 0.711 | 0.689 | 0.723
13 | NCI-H2023 | 1.02 | 0.943 | 0.948 | 0.852 | 0.967 | 0.819 | 0.787 | 0.793 |  |  |  | 0.617 | 0.661 | 0.767 | 0.396 |  | 0.647 | 0.474 | 0.537 | 0.434
14 | NCI-H441 | 1.1 | 1.1 | 1.31 | 1.03 |  |  |  |  | 1.02 | 1.05 | 1.09 | 0.827 | 0.885 | 0.936 | 0.835 | 1.3 | 0.509 | 0.476 | 0.436 | 0.379
15 | NCI-H2228 | 0.906 | 0.918 | 0.989 | 0.882 | 1.19 |  | 1.18 | 1.04 |  |  |  | 0.664 | 0.442 | 0.605 | 0.552 |  | 0.54 | 0.599 | 0.494 | 0.355
16 | NCI-H1792 | 0.822 | 1.08 | 0.993 | 0.84 | 0.892 | 0.866 | 0.918 | 0.866 | 0.543 | 0.778 | 0.273 |  |  |  |  | 0.641 | 0.478 | 0.416 | 0.437 | 0.316
17 | IA-LM | 0.998 | 1.08 | 0.967 | 1.01 | 0.811 | 0.848 | 0.92 | 0.798 |  |  |  | 1.06 | 0.945 | 0.894 | 0.947 |  |  |  |  | 
18 | NCI-H1563 | 1.05 | 0.906 | 0.928 | 0.713 | 0.869 | 0.931 | 0.84 | 0.758 |  |  |  |  |  |  |  |  |  |  |  | 
